Our source for the EC50 and CC50 values is US8729089B2 (Gilead Sciences, Inc., priority 2006, dated 2014).

What is called EC50 is the concentration at which the effect is half-maximal. Low readings indicate higher potency in that assay, high ones lower potency in that assay. A word on the CC50: it is the concentration giving 50% cytotoxicity. Higher therefore signals lower toxicity to the cells.

Series [1] relates to HCV replicon in human hepatoma Huh-7 cell line. The experiment in a line: Anti-HCV replicon assay (EC50, luciferase). The settings on record: Hepatitis C virus, Huh-7, 72 h. It is filed as cell-based. Put shortly: (§1)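 Cytotoxicity (CC50) measured by CellTiter-Glo and antiviral activity (EC50) by luciferase signal from lysed cells, both by luminescence. Replicon-bearing Huh-7 cells, 6000 per well, incubated 3 days at 37 °C with threefold-diluted compound (0.5% DMSO for DMSO-dissolved compounds).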

Series [2] can be described thus: CC50 assay (CellTiter-Glo) in Huh-7 HCV replicon cells. The conditions noted are these: human, 3 days incubation, CellTiter-Glo readout. The series is classed as cell-based, human. In outline:
as §1
On the technique in general: ATP-based viability assays read luminescence as a measure of living cells.

As for `NC(=O)Nc1ccc(-c2ccc3nc(NCc4ccc(S(N)(=O)=O)cc4)nc(C4CC4)c3n2)cc1` [Example 290, 4-{[4-Cyclopropyl-6-(4-ureido-phenyl)-pyrido[3,2-d]pyrimidin-2-ylamino]-methyl}-benzenesulfonamide], the EC50 in series [1] was less than 0.1 µM. Also, in series [2], the cytotoxic concentration (CC50) at 3 days is 5 to 25 µM.

As for `NS(=O)(=O)c1ccc(CNc2nc(NCC(F)(F)F)c3nc(-c4ccc(F)c(Cl)c4)ccc3n2)cc1` [Example 233, 4-{[6-(3-Chloro-4-fluoro-phenyl)-4-(2,2,2-trifluoro-ethylamino)-pyrido[3,2-d]pyrimidin-2-ylamino]-methyl}-benzenesulfonamide], the EC50 in series [1] was less than 0.1 µM. The same molecule yielded a 50% cytotoxic concentration (CC50) at 3 days in series [2] of 5 to 25 µM.

Regarding `CCOc1nc(NCc2ccc(F)cc2)nc2ccc(-c3cccc(NS(=O)(=O)N(C)C)c3)nc12` [Example 84, N′-{3-[4-Ethoxy-2-(4-fluoro-benzylamino)-pyrido[3,2-d]pyrimidin-6-yl]-phenyl}-N.N-dimethyl methanesulfonyl urea], the EC50 in series [1] was less than 0.1 µM. The molecule further showed a CC50 at 3 days in series [2] of less than 5 µM.

Take `CCOc1nc(NCc2ccc(F)cc2)nc2ccc(-c3ccc(NC(=O)NCCN4CCCC4)cc3)nc12` [Example 93, 1-{4-[4-Ethoxy-2-(4-fluoro-benzylamino)-pyrido[3,2-d]pyrimidin-6-yl]-phenyl}-3-(2-pyrrolidin-1-yl-ethyl)-urea]: the EC50 in series [1] was less than 0.1 µM. For the same molecule, the CC50 at 3 days in series [2] was less than 5 µM.

On to `CCOc1nc(NCc2ccc(C(F)(F)F)c(F)c2)nc2ccc(-c3ccc(F)cc3)nc12` [Example 44, [4-Ethoxy-6-(4-fluoro-phenyl)-pyrido[3,2-d]pyrimidin-2-yl]-(3-fluoro-4-trifluoromethyl-benzyl)-amine], for which, in series [1], the half-maximal effective concentration (EC50) was less than 0.1 µM. In series [2], this molecule registered a CC50 at 3 days of 5 to 25 µM.

Regarding `NS(=O)(=O)c1ccc(CNc2nc(OC3CC3)c3nc(-c4ccc(F)cc4)ccc3n2)cc1` [Example 234, 4-{[4-Cyclopropoxy-6-(4-fluoro-phenyl)-pyrido[3,2-d]pyrimidin-2-ylamino]-methyl}-benzenesulfonamide], the EC50 in series [1] is less than 0.1 µM. In series [2], this molecule gave a half-maximal cytotoxic concentration (CC50) at 3 days of 5 to 25 µM.

In series [1], `CCOc1nc(NCc2ccc(S(N)(=O)=O)cc2)nc2ccc(-c3ccc(C(=O)NC4(C#N)CC4)cc3)nc12` [Example 143, 4-{[4-Ethoxy-6-(4-(N-(1-cyano-1-cyclopropyl)-carbamoyl)phenyl)-pyrido[3,2-d]pyrimidin-2-ylamino]-methyl}-benzenesulfonamide] had an EC50 of less than 0.1 µM. The same molecule had a CC50 at 3 days in series [2] of 5 to 25 µM.

In turn, `CCOc1nc(NCc2ccc(S(N)(=O)=O)cc2)nc2ccc(-c3ccc(NC(=O)NC4CC4)cc3)nc12` [Example 131, 4-{[4-Ethoxy-6-(4-(3-cyclopropylureido)-phenyl)-pyrido[3,2-d]pyrimidin-2-ylamino]-methyl}-benzenesulfonamide] came in with a concentration giving a half-maximal response (EC50) in series [1] of less than 0.1 µM. In series [2], this molecule returned a CC50 at 3 days of 5 to 25 µM.

With `Fc1ccc(CNc2nc(NCCN3CCOCC3)c3nc(-c4ccc(F)cc4)ccc3n2)cc1` [Example 32, N2-(4-Fluoro-benzyl)-6-(4-fluoro-phenyl)-N4-(2-morpholin-4-yl-ethyl)-pyrido[3,2-d]pyrimidine-2,4-diamine], the concentration giving a half-maximal response (EC50) in series [1] is less than 0.1 µM. Moreover, the 50% cytotoxic concentration (CC50) at 3 days in series [2] fell in the range of 5 to 25 µM.

Turning to `CCOc1nc(NCCOC)nc2ccc(-c3ccc(F)cc3)nc12` [Example 264, [4-Ethoxy-6-(4-fluoro-phenyl)-pyrido[3,2-d]pyrimidin-2-yl]-(2-methoxy-ethyl)-amine], in series [1], the EC50 was less than 0.1 µM. Moreover, in series [2], the CC50 at 3 days was greater than 25 µM.

For the molecule `NS(=O)(=O)c1ccc(CNc2nc(NCC(F)(F)F)c3nc(-c4ccc(Cl)c(S(=O)(=O)N[C@@H]5CCNC5)c4)ccc3n2)cc1` [Example 197, 2-Chloro-N-pyrrolidin-3-yl-5-[2-(4-sulfamoyl-benzylamino)-4-(2,2,2-trifluoro-ethylamino)-pyrido[3,2-d]pyrimidin-6-yl]-benzenesulfonamide], the EC50 in series [1] was less than 0.1 µM. Also, the CC50 at 3 days in series [2] is less than 5 µM.

For `N#CC1(Nc2nc(NCc3ccc(S(N)(=O)=O)cc3)nc3ccc(-c4ccc(F)cc4)nc23)CC1` [Example 303, 4-{[4-(1-Cyano-cyclopropylamino)-6-(4-fluoro-phenyl)-pyrido[3,2-d]pyrimidin-2-ylamino]-methyl}-benzenesulfonamide], the EC50 in series [1] is less than 0.1 µM. Also, the half-maximal cytotoxic concentration (CC50) at 3 days in series [2] was 5 to 25 µM.

In the case of `CCN(CC)c1nc(NCc2ccc(S(N)(=O)=O)cc2)nc2ccc(-c3ccc(F)cc3)nc12` [Example 59, 4-{[4-Diethylamino-6-(4-fluoro-phenyl)-pyrido[3,2-d]pyrimidin-2-ylamino]-methyl}-benzenesulfonamide], the EC50 in series [1] is less than 0.1 µM. Further, the CC50 at 3 days in series [2] was in the range of 5 to 25 µM.

`CCOc1nc(NCc2ccc(Cl)cc2F)nc2ccc(-c3ccc(F)cc3)nc12` [Example 38, (4-Chloro-2-fluoro-benzyl)-[4-ethoxy-6-(4-fluoro-phenyl)-pyrido[3,2-d]pyrimidin-2-yl]-amine]: in series [1], the EC50 was less than 0.1 µM. The molecule further displayed a CC50 at 3 days in series [2] of 5 to 25 µM.

Take `CCOc1nc(NCc2ccc(F)cc2)nc2ccc(-c3ccc(NC(=O)NCCN4CCOCC4)cc3)nc12` [Example 71, 1-{4-[4-Ethoxy-2-(4-fluoro-benzylamino)-pyrido[3,2-d]pyrimidin-6-yl]-phenyl}-3-(2-morpholin-4-yl-ethyl)-urea]: the EC50 in series [1] was less than 0.1 µM. In addition, in series [2], the CC50 at 3 days was less than 5 µM.

Consider `C[C@@H](O)C(=O)Nc1ccc(-c2ccc3nc(NCc4ccc(S(N)(=O)=O)cc4)nc(NCC(F)(F)F)c3n2)cc1` [Example 220, 2-Hydroxy-N-{4-[2-(4-sulfamoyl-benzylamino)-4-(2,2,2-trifluoro-ethylamino)-pyrido[3,2-d]pyrimidin-6-yl]-phenyl}-propionamide], for which, in series [1], the EC50 was less than 0.1 µM. The CC50 at 3 days in series [2] fell in the range of 5 to 25 µM.

The molecule `CCOc1nc(NCc2ccc(F)cc2)nc2ccc(-c3ccc(C(=O)NC(C)(C)CN4CCOCC4)cc3)nc12` [Example 103, N-(1,1-Dimethyl-2-morpholin-4-yl-ethyl)-4-[4-ethoxy-2-(4-fluoro-benzylamino)-pyrido[3,2-d]pyrimidin-6-yl]-benzamide] yielded an EC50 in series [1] of less than 0.1 µM. The molecule further came in with a CC50 at 3 days in series [2] of less than 5 µM.

As for `CN(CC(F)(F)F)c1nc(NCc2ccc(S(N)(=O)=O)cc2)nc2ccc(-c3ccc(F)cc3)nc12` [Example 206, 4-({6-(4-Fluoro-phenyl)-4-[methyl-(2,2,2-trifluoro-ethyl)-amino]-pyrido[3,2-d]pyrimidin-2-ylamino}-methyl)-benzenesulfonamide], in series [1], the concentration giving a half-maximal response (EC50) was less than 0.1 µM. Further, the CC50 at 3 days in series [2] was less than 5 µM.

In series [1], `CCOc1nc(NCc2ccc(F)cc2)nc2ccc(-c3ccc4c(c3)CC(=O)N4)nc12` [Example 78, 5-[4-Ethoxy-2-(4-fluoro-benzylamino)-pyrido[3,2-d]pyrimidin-6-yl]-1,3-dihydro-indol-2-one] gave a half-maximal effective concentration (EC50) of less than 0.1 µM. The CC50 at 3 days in series [2] is 5 to 25 µM.

Turning to `NS(=O)(=O)c1ccc(CNc2nc(NCC(F)(F)F)c3nc(-c4ccc(F)c(S(=O)(=O)NC5CCNCC5)c4)ccc3n2)cc1` [Example 214, 2-Fluoro-N-piperidin-4-yl-5-[2-(4-sulfamoyl-benzylamino)-4-(2,2,2-trifluoro-ethylamino)-pyrido[3,2-d]pyrimidin-6-yl]-benzenesulfonamide], the EC50 in series [1] was less than 0.1 µM. In series [2], this molecule gave a CC50 at 3 days of 5 to 25 µM.

Take `COC(=O)Nc1ccc(-c2ccc3nc(NCc4ccc(S(N)(=O)=O)cc4)nc(NCC(F)(F)F)c3n2)cc1` [Example 211, {4-[2-(4-Sulfamoyl-benzylamino)-4-(2,2,2-trifluoro-ethylamino)-pyrido[3,2-d]pyrimidin-6-yl]-phenyl}-carbamic acid methyl ester]: the EC50 in series [1] was less than 0.1 µM. The molecule also showed a cytotoxic concentration (CC50) at 3 days in series [2] of 5 to 25 µM.

`CCOc1nc(NCc2ccc(S(N)(=O)=O)cc2)nc2ccc(-c3ccc(NC(=O)NCCN4CCCC4)cc3)nc12` [Example 124, 4-{[4-Ethoxy-6-(4-(3-(2-(pyrrolidin-1-yl)ethyl)ureido)-phenyl)-pyrido[3,2-d]pyrimidin-2-ylamino]-methyl}-benzenesulfonamide]: the concentration for a half-maximal effect (EC50) in series [1] is less than 0.1 µM. The molecule further yielded a CC50 at 3 days in series [2] of 5 to 25 µM.

For the molecule `CS(=O)(=O)Nc1ccc(CNc2nc(NCC(F)(F)F)c3nc(-c4ccc(F)cc4)ccc3n2)cc1` [Example 241, N-(4-{[6-(4-Fluoro-phenyl)-4-(2,2,2-trifluoro-ethylamino)-pyrido[3,2-d]pyrimidin-2-ylamino]-methyl}-phenyl)-methanesulfonamide], the EC50 in series [1] is less than 0.1 µM. This molecule yielded a CC50 at 3 days in series [2] of 5 to 25 µM.

As to `NS(=O)(=O)c1ccc(CNc2nc(NCC(F)(F)F)c3nc(-c4ccc(NC(=O)OCCN5CCCC5)cc4)ccc3n2)cc1` [Example 223, {4-[2-(4-Sulfamoyl-benzylamino)-4-(2,2,2-trifluoro-ethylamino)-pyrido[3,2-d]pyrimidin-6-yl]-phenyl}-carbamic acid 2-pyrrolidin-1-yl-ethyl ester], the concentration for a half-maximal effect (EC50) in series [1] was less than 0.1 µM. The molecule also returned a half-maximal cytotoxic concentration (CC50) at 3 days in series [2] of 5 to 25 µM.

Turning to `CCOc1nc(NCc2ccc(CS(N)(=O)=O)cc2)nc2ccc(-c3ccc(F)cc3)nc12` [Example 270], the half-maximal effective concentration (EC50) in series [1] was less than 0.1 µM. Besides, in series [2], the 50% cytotoxic concentration (CC50) at 3 days was in the range of 5 to 25 µM.

Turning to `CC(C)Nc1nc(Nc2ccc(F)cc2)nc2ccc(-c3ccc(F)cc3)nc12` [Example 49, 6-(4-Fluoro-phenyl)-N4-isopropyl-N2-(4-fluoro-phenyl)-pyrido[3,2-d]pyrimidine-2,4-diamine], the EC50 in series [1] was 0.25 to 2 µM. In series [2], this molecule yielded a CC50 at 3 days greater than 25 µM.

Take `N#Cc1ccc(-c2ccc3nc(NCc4ccc(S(N)(=O)=O)cc4)nc(NCC(F)(F)F)c3n2)cc1` [Example 212, 4-{[6-(4-Cyano-phenyl)-4-(2,2,2-trifluoro-ethylamino)-pyrido[3,2-d]pyrimidin-2-ylamino]-methyl}-benzenesulfonamide]: the EC50 in series [1] is less than 0.1 µM. Besides, the CC50 at 3 days in series [2] lay in the range of 5 to 25 µM.
